Numbers after ± are expanded uncertainties.
How the values were obtained:
[1] = wn = mass fraction of the nth substance listed; conditions: 86 kPa, Liquid, Vibrating tube method
[2] = 86 kPa, Liquid, Vibrating tube method

Structure (SMILES) | mass density ([1]; 298.15 K, w1 = 0.2573) | mass density ([1]; 298.15 K, w1 = 0.3) | mass density ([1]; 298.15 K, w1 = 0.5) | mass density ([1]; 313.15 K, w1 = 0.2573) | mass density ([1]; 313.15 K, w1 = 0.3) | mass density ([1]; 313.15 K, w1 = 0.5) | mass density ([1]; 323.15 K, w1 = 0.3) | mass density ([1]; 323.15 K, w1 = 0.5) | mass density ([1]; 333.15 K, w1 = 0.3) | mass density ([1]; 333.15 K, w1 = 0.5) | mass density ([1]; 343.15 K, w1 = 0.3) | mass density ([1]; 343.15 K, w1 = 0.5) | mass density ([1]; 348.17 K, w1 = 0.2573) | mass density ([2]; 298.15 K) | mass density ([2]; 313.15 K) | mass density ([2]; 323.15 K) | mass density ([2]; 333.15 K) | mass density ([2]; 343.15 K)
CN(CCO)CCO [N-methyldiethanolamine] + O | 1020.5 ± 4 kg/m3 | 1024.7 ± 4 kg/m3 | 1042.5 ± 4 kg/m3 | 1013.5 ± 4 kg/m3 | 1017.1 ± 4 kg/m3 | 1032.8 ± 4 kg/m3 | 1009.6 ± 4 kg/m3 | 1026 ± 4 kg/m3 | 1002.7 ± 4 kg/m3 | 1018.7 ± 4 kg/m3 | 995.1 ± 4 kg/m3 | 1011.2 ± 4 kg/m3 | 988.9 ± 4 kg/m3 | – | – | – | – | –
CN(CCO)CCO [N-methyldiethanolamine] | – | – | – | – | – | – | – | – | – | – | – | – | – | 1036.4 ± 4.1 kg/m3 | 1025.1 ± 4.1 kg/m3 | 1017.5 ± 4.1 kg/m3 | 1009.9 ± 4.1 kg/m3 | 1002.2 ± 4.1 kg/m3
CCCC[n+]1ccccc1.F[B-](F)(F)F [1-butylpyridinium tetrafluoroborate] | – | – | – | – | – | – | – | – | – | – | – | – | – | 1213.9 ± 4.2 kg/m3 | 1203.8 ± 4.2 kg/m3 | 1197 ± 4.2 kg/m3 | 1190.3 ± 4.2 kg/m3 | 1183.6 ± 4.2 kg/m3

— the NIST ThermoML archive (doi:10.1021/acs.jced.8b00142)
